Laboratory results published in patent US12414951B2, “Use of compound in preparation of medicament for prophylaxis and treatment of inflammatory tissue damage” (Sichuan University, priority 2022, dated 2025).

Experiments:
irradiated skin cells [1] = assay: colony formation test of irradiated skin cells; type: cell-based; conditions: 10 μM for 24 h before irradiation; X-ray 2 Gy once or twice or Sr 90 4 Gy once; vs DMSO, P<0.01
Experimental: To determine the promoting effect of IRF1 inhibitor IRSKIN-1 on irradiated skin cell proliferation, cells were treated with 10 μM IRSKIN-1 or equivalent DMSO for 24 h before irradiation, respectively; subsequently, the cells were subjected to fractionated irradiation at 2 Gy once or at 2 Gy twice or Sr 90 irradiation at 4 Gy once, respectively; subsequently, the effect of IRSKIN-1 on irradiated cell proliferation ability was evaluated by the colony formation test (2,500 cells were spread on each well of a 6-well plate).

mouse primary skin cells = assay: senescence of irradiated primary skin cells by β-galactosidase staining; type: cell-based; conditions: 10 μM for 24 h before irradiation; 20 Gy X-ray once; 3 days after irradiation; vs DMSO, P<0.01
Experimental: To determine whether IRSKIN-1 reduces the senescence rate of irradiated skin cells, mouse primary skin cell were isolated and cultured, cells were treated with 10 μM IRSKIN-1 or equivalent DMSO for 24 h before irradiation, respectively; subsequently, the cells were irradiated with 20 Gy X-ray once, and the effect of IRSKIN-1 on irradiated primary cell senescence was evaluated by β-galactosidase staining method 3 days after irradiation.

[2] = system: inflammatory factors in irradiated skin tissue; assay: inflammation microarray of irradiated skin tissue of treated mice; type: in vivo, mouse; conditions: s.c. treatment, FIG. 10
Experimental: (§1) Male C57 BL/6J mice aged 6-8 weeks were purchased from GemPharmatech Co., Ltd. The mice were acclimatized and randomized into two groups (6 mice per group); the mice were subcutaneously injected with IRSKIN-1 (which was dissolved in DMSO to prepare a 50 mM solution, 100 μL/time) and equivalent DMSO once 1 and 3 days before irradiation, respectively; based on 1% of the body weight of each mouse, the mouse was anesthetized by intraperitoneal injection of 1% chloral hydrate, the skin of hind limbs of the mouse was depilated, and the mouse was immobilized on a board to reduce accidental movements during irradiation.
(§2) The skin of limbs of mice was irradiated with 6 MeV electron ray generated by Varian 23EX Linear Accelerator (Varian, the USA); the surface was covered with a 1 cm thick bolus, and non-irradiated sites were shielded with a lead plate; the irradiation area was approximately 30×40 mm, the absorbed dose rate was 750 cGy/min, and the total dose was 45 Gy; and the range of the irradiated area was outlined with a marker pen during irradiation.

irradiated skin cells [3] = assay: mortality of irradiated skin cells by AV/PI staining; type: cell-based; conditions: 10 μM for 24 h before irradiation; 20 Gy X-ray once; 3 days after irradiation; vs DMSO, P<0.01
Experimental: To determine whether IRSKIN-1 reduces the mortality of irradiated skin cells, cells were treated with 10 μM IRSKIN-1 or equivalent DMSO for 24 h before irradiation, respectively; subsequently, the cells were irradiated with 20 Gy X-ray once, and the effect of IRSKIN-1 on irradiated cell proliferation ability was evaluated by AV/PI staining method 3 days after irradiation.

IRF1 = biological target: T1, IRF1 (Homo sapiens, UniProt P10914); assay: IRF1 transcriptional activity, dual-luciferase reporter system in irradiated HaCaT cells; type: cell-based; conditions: 10 μM 24 h before irradiation, X-ray 20 Gy, detection 1 h after irradiation, P<0.01
T1 construct: Human skin keratinocytes (HaCaT cells) were infected in vitro according to a titer of 100 MOI; endogenous in cells; host or cells: HaCaT human skin keratinocytes infected with an h-IRF1 promoter-rluc reporter adenovirus
T1 sequence (P10914 1-325): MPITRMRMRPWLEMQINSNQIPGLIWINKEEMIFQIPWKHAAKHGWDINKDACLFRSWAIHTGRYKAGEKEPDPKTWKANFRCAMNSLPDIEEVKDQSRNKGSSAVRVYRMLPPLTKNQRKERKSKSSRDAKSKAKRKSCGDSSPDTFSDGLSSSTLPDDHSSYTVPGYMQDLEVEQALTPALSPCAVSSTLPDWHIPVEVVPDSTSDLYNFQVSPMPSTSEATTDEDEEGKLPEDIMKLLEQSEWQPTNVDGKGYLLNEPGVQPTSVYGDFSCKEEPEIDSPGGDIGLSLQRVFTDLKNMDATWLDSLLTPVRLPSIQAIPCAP
From the text: To determine the inhibitory effect of the compound (IRSKIN-1) on the transcriptional activity of IRF1, Hanbio Biotechnology (Shanghai) Co., Ltd. was entrusted to construct an h-IRF1 promoter-rluc adenovirus vector. The vector has four binding sites of IRF1, and the downstream of the promoter is a luciferase reporter gene. The virus was constructed based on a dual-luciferase reporter system, and the transcriptional activity of IRF1 could be directly reflected by the luciferase activity. Human skin keratinocytes (HaCaT cells) were infected in vitro according to a titer of 100 MOI, and the virus infection efficiency met the experimental requirement 48 h after infection.
A microplate reader PROMEGA and the corresponding substrates were used for detection 1 h after irradiation.

[4] = system: radiation-induced skin injury in C57 BL/6J mice; assay: radiation-induced skin injury mouse model, subcutaneous injection; type: in vivo; conditions: 1 and 3 days before irradiation
Experimental: as §1, §2

[5] = system: Caspase1, GSDMD and IL1 in irradiated skin cells; assay: Western blot of pyroptosis pathway proteins in irradiated skin cells; type: cell-based; conditions: 10 μM for 24 h before irradiation, 20 Gy X-ray once
Experimental: To determine the mechanism of the inhibitory effect of IRF1 inhibitor IRSKIN-1 on inflammatory death in the irradiated skin cells, cells were treated with 10 μM IRSKIN-1 or equivalent DMSO for 24 h before irradiation, respectively; subsequently, the cells were irradiated with 20 Gy X-ray once, and changes in key proteins of cell pyroptosis pathway, Caspase1 and GSDMD, and inflammatory factor IL1 were detected by Western blot, so as to determine the inhibitory effect of IRSKIN-1 on inflammatory death in the irradiated skin cells and its mechanism.

[6] = s.c. 50 mM in DMSO 100 μL/time, 45 Gy electron ray

irradiated IRF1 transcriptional activity (luciferase activity) vs DMSO-treated irradiation group (IRF1): significantly lower
SMILES: O=C(CCn1cnc2ccccc2c1=O)Nc1ccc(S(=O)(=O)N2CCCCC2)cc1 [IRSKIN-1, 3-(4-oxo-3 (4H)-quinazolinyl)-N-[4-(1-piperidinylsulfonyl)phenyl]propanamide]
clone formation ability of irradiated skin cells (irradiated skin cells [1]): significantly improve | β-galactosidase positive rate (senescence) of mouse primary cells (mouse primary skin cells): reduce the β-galactosidase positive rate | expression of BLC in skin tissue [2]: downregulated | expression of G-CSF in skin tissue [2]: upregulated | expression of MIP-1a in skin tissue [2]: upregulated | expression of TNF-R II in skin tissue [2]: upregulated | cell mortality after X-ray irradiation (AV/PI staining) (irradiated skin cells [3]): reduce cell mortality | wet ulcers of the skin ([4]; s.c. 50 mM 100 μL/time, 45 Gy, FIG. 8, 15 and 30 days after irradiation): wet ulcers appeared in only fewer areas | progression scores of radiation-induced skin injury ([4]; s.c. 50 mM 100 μL/time, 45 Gy, FIG. 9): reducing progression scores | progression of radiation-induced skin injury vs DMSO group [4, 6]: slower | ulcer wound area vs DMSO group [4, 6]: smaller ulcer wound area | hydrolysis of Caspase1 [5]: inhibit the hydrolysis | hydrolysis of GSDMD [5]: inhibit the hydrolysis | hydrolysis of IL1 [5]: inhibit the hydrolysis
